Data: the supplement of paper PMC10307832

Tests used:
Assay in all cases: relative viability (nuclei count vs DMSO), 5 days (fraction); higher = more cells survive
NCI-H460 = system: NCI-H460
Outline: (§1)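 One day after seeding in 1536-well plates, lung cancer cell lines were dosed by pin tool. Dosing was either single-drug or a fixed anchor-drug dose plus five library-drug doses (not always all listed) in √10 steps. After 5 days, nuclei were stained in one fix-and-stain step and counted on 4× images, and relative viability is the nuclei count of treated wells over that of vehicle wells, given as the median of duplicate plates.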

EMC-BAC-2 = system: EMC-BAC-2
Outline: as §1

LCLC-97TM1 = system: LCLC-97TM1
Outline: as §1

NCI-H1395 = system: NCI-H1395
Outline: as §1

HOP-62 = system: HOP-62
Outline: as §1

NCI-H647 = system: NCI-H647
Outline: as §1

NCI-H322M = system: NCI-H322M
Outline: as §1

NCI-H3122 = system: NCI-H3122
Outline: as §1

NCI-H2085 = system: NCI-H2085
Outline: as §1

LOU-NH91 = system: LOU-NH91
Outline: as §1

NCI-H520 = system: NCI-H520
Outline: as §1

HCC-44 = system: HCC-44
Outline: as §1

With C=C1C(=O)O[C@@H](CCCCCCCC)[C@@H]1C(=O)O [C-75] + CC(=O)Nc1cccc(-n2c(=O)n(C3CC3)c(=O)c3c(Nc4ccc(I)cc4F)n(C)c(=O)c(C)c32)c1 [Trametinib] (partner 0.02 µM) as the compound, how does the relative viability (NCI-H460; first compound 0.253 µM) read?
Its relative viability is 0.178.

What about the relative viability (NCI-H460; first compound 0.8 µM) of the same compound?
The relative viability was 0.123.

And the relative viability (NCI-H460; first compound 2.53 µM)?
The relative viability was 0.104.

What about the relative viability (NCI-H460; first compound 8 µM) of the same compound?
Its relative viability is 0.151.

What about the relative viability (EMC-BAC-2; first compound 0.08 µM) of the same compound?
Its relative viability is 0.872.

What about the relative viability (EMC-BAC-2; first compound 0.253 µM) of the same compound?
The relative viability was 0.987.

What about the relative viability (EMC-BAC-2; first compound 0.8 µM) of the same compound?
The relative viability was 0.853.

What about the relative viability (EMC-BAC-2; first compound 2.53 µM) of the same compound?
The relative viability was 0.803.

What about the relative viability (EMC-BAC-2; first compound 8 µM) of the same compound?
The relative viability was 0.89.

What about the relative viability (LCLC-97TM1; first compound 0.08 µM) of the same compound?
Its relative viability is 0.211.

What about the relative viability (LCLC-97TM1; first compound 0.253 µM) of the same compound?
Its relative viability is 0.162.

What about the relative viability (LCLC-97TM1; first compound 0.8 µM) of the same compound?
The relative viability was 0.193.

And the relative viability (LCLC-97TM1; first compound 2.53 µM)?
Its relative viability is 0.175.

And the relative viability (LCLC-97TM1; first compound 8 µM)?
Its relative viability is 0.177.

And the relative viability (NCI-H1395; first compound 0.08 µM)?
The relative viability was 0.973.

And the relative viability (NCI-H1395; first compound 0.253 µM)?
Its relative viability is 1.05.

What about the relative viability (NCI-H1395; first compound 2.53 µM) of the same compound?
Its relative viability is 1.03.

What about the relative viability (NCI-H1395; first compound 8 µM) of the same compound?
The relative viability was 0.933.

And the relative viability (HOP-62; first compound 0.08 µM)?
Its relative viability is 0.354.

What about the relative viability (HOP-62; first compound 0.253 µM) of the same compound?
Its relative viability is 0.43.

What about the relative viability (HOP-62; first compound 0.8 µM) of the same compound?
The relative viability was 0.358.

And the relative viability (HOP-62; first compound 2.53 µM)?
The relative viability was 0.321.

And the relative viability (HOP-62; first compound 8 µM)?
Its relative viability is 0.359.

What about the relative viability (NCI-H647; first compound 0.08 µM) of the same compound?
The relative viability was 0.463.

And the relative viability (NCI-H647; first compound 0.253 µM)?
The relative viability was 0.533.

What about the relative viability (NCI-H647; first compound 0.8 µM) of the same compound?
The relative viability was 0.361.

What about the relative viability (NCI-H647; first compound 2.53 µM) of the same compound?
Its relative viability is 0.429.

What about the relative viability (NCI-H647; first compound 8 µM) of the same compound?
The relative viability was 0.28.

What about the relative viability (NCI-H322M; first compound 0.08 µM) of the same compound?
Its relative viability is 0.513.

And the relative viability (NCI-H322M; first compound 0.253 µM)?
The relative viability was 0.673.

What about the relative viability (NCI-H322M; first compound 0.8 µM) of the same compound?
Its relative viability is 0.547.

And the relative viability (NCI-H322M; first compound 8 µM)?
The relative viability was 0.508.

And the relative viability (NCI-H3122; first compound 0.08 µM)?
Its relative viability is 0.261.

And the relative viability (NCI-H3122; first compound 0.253 µM)?
Its relative viability is 0.243.

And the relative viability (NCI-H3122; first compound 0.8 µM)?
The relative viability was 0.218.

And the relative viability (NCI-H3122; first compound 2.53 µM)?
The relative viability was 0.143.

And the relative viability (NCI-H3122; first compound 8 µM)?
Its relative viability is 0.259.

What about the relative viability (NCI-H2085; first compound 0.08 µM) of the same compound?
The relative viability was 0.519.

What about the relative viability (NCI-H2085; first compound 0.253 µM) of the same compound?
Its relative viability is 0.666.

And the relative viability (NCI-H2085; first compound 0.8 µM)?
Its relative viability is 0.466.

What about the relative viability (NCI-H2085; first compound 2.53 µM) of the same compound?
The relative viability was 0.559.

What about the relative viability (NCI-H2085; first compound 8 µM) of the same compound?
The relative viability was 0.521.

What about the relative viability (LOU-NH91; first compound 0.08 µM) of the same compound?
Its relative viability is 0.802.

And the relative viability (LOU-NH91; first compound 0.253 µM)?
The relative viability was 0.712.

What about the relative viability (LOU-NH91; first compound 0.8 µM) of the same compound?
Its relative viability is 0.762.

And the relative viability (LOU-NH91; first compound 8 µM)?
The relative viability was 0.782.

And the relative viability (NCI-H520; first compound 0.08 µM)?
Its relative viability is 0.689.

And the relative viability (NCI-H520; first compound 0.253 µM)?
The relative viability was 0.816.

And the relative viability (NCI-H520; first compound 0.8 µM)?
The relative viability was 0.593.

What about the relative viability (NCI-H520; first compound 2.53 µM) of the same compound?
Its relative viability is 0.48.

What about the relative viability (NCI-H520; first compound 8 µM) of the same compound?
The relative viability was 0.533.

And the relative viability (HCC-44; first compound 0.08 µM)?
The relative viability was 1.03.

What about the relative viability (HCC-44; first compound 0.253 µM) of the same compound?
The relative viability was 1.14.

And the relative viability (HCC-44; first compound 0.8 µM)?
The relative viability was 0.964.

And the relative viability (HCC-44; first compound 2.53 µM)?
Its relative viability is 0.991.

What about the relative viability (HCC-44; first compound 8 µM) of the same compound?
The relative viability was 1.09.
